In patent publication US7235679B2, “Crystals of a vitamin D derivative and a method for the preparation thereof” (Chugai Seiyaku Kabushiki Kaisha, priority 1996, dated 2007):

Columns and labels:
Format in all cases: physicochemical
[1] = Stability test of ED-71: purity measurement using reverse phase HPLC; conditions: for Purity Measurement Using Reverse Phase HPLC, ED-71 peak / Purity Measurement Using Reverse Phase HPLC, Other peaks / Purity Measurement Using Reverse Phase HPLC, Pre Form peak: 265 nm
Procedure: (§1) Amorphous and crystalline ED-71 compounds were tested for stability at 10, 25 and […]. To estimate the stability, HPLC quantitative assay and absorbance and purity measurements were utilized. The purity was expressed as peak area ratio in percentage in HPLC (% P.A.R.). The test was carried out by using the following procedures:
(§2) About 2 mg portions of each of the amorphous and crystalline samples are precisely weighed into transparent 10 ml test tubes each having screw cap, individually.
(§3) The test tubes are purged with argon using a vacuum desiccator and a glove box. This purging procedure is not applied to the test tubes indicated as “1 M (air)” in the tables below.
(§4) The test tubes in groups are fixed in thermostatic baths which are respectively controlled at the above temperatures and allowed to stand in the dark. After one (1 W) or two (2 W) weeks or one month (1 M), the test tubes are removed from the baths and subjected to the following assay and measurements:
HPLC is carried out using 25 μl of the sample solution as prepared in “HPLC quantitative assay” above. • HPLC conditions used: • Column: Inertsil ODS-2 (5×250 mm) • Mobile phase: acetonitrile/water mixture (55/45) • Flow rate: 1 ml/min • Detection: at UV 265 and 220 nm.

[2] = Stability test of ED-71: absorbance measurement at 265 nm (E 1%); conditions: absorbance at 265 nm
Procedure: as §1, §2, §3, §4
1 ml of the sample solution as prepared in “HPLC quantitative assay” above is diluted with absolute ethanol to give a whole volume of 10 ml and this diluted solution is then measured for the absorbance at 265 nm using a ultraviolet spectrophotometer. The absorbance is converted into E 1% value which is derived from Lambert-Beer Law and the conversion is made according to the following equation: E1%=A/cb wherein A is absorbance, c is concentration in g/100 ml and b is length of optical path in cm across the test solution, which is commonly 1. (4) Purity Measurement

[3] = Stability test of ED-71: purity measurement using normal phase HPLC; conditions: 265 nm
Procedure: as §1, §2, §3, §4
1 ml of the sample solution as prepared in “HPLC quantitative assay” above is dried in vacuo to remove the solvent (absolute ethanol). The residue is dissolved in 1 ml of methylene chloride. HPLC assay is carried out using 25 μl of this solution. • HPLC conditions used: • Column: YMC A-004SIL (4.6×300 mm) • Mobile phase: methylene chloride/methanol mixture (96/4) • Flow rate: 1.8 ml/min • Detection: at UV 265 nm.

## C=C1/C(=C\C=C2/CCC[C@@]3(C)C2CC[C@@H]3[C@H](C)CCCC(C)(C)O)C[C@@H](O)[C@@H](OCCCO)[C@@H]1O (stereo partly drawn) [Amor., 1α,25-dihydroxy-2β-(3-hydroxypropoxy)vitamin D3]
[1]; 10° C., 1 M (air), dark
  220 nm (%), ED-71 peak: 92.07%
  220 nm (%), Other peaks: 5.88%
  220 nm (%), Pre Form peak: 2.04%
  Purity Measurement Using Reverse Phase HPLC, ED-71 peak: 94.11 % P.A.R
  Purity Measurement Using Reverse Phase HPLC, Other peaks: 4.07 % P.A.R
  Purity Measurement Using Reverse Phase HPLC, Pre Form peak: 1.82 % P.A.R
[1]; 10° C., 1 M, argon, dark
  220 nm (%), ED-71 peak: 92.85%
  220 nm (%), Other peaks: 5.13%
  220 nm (%), Pre Form peak: 2.02%
  Purity Measurement Using Reverse Phase HPLC, ED-71 peak: 93.05 % P.A.R
  Purity Measurement Using Reverse Phase HPLC, Other peaks: 5.07 % P.A.R
  Purity Measurement Using Reverse Phase HPLC, Pre Form peak: 1.88 % P.A.R
[1]; 10° C., 2 W, argon, dark
  220 nm (%), ED-71 peak: 92.85%
  220 nm (%), Other peaks: 5.13%
  220 nm (%), Pre Form peak: 2.02%
  Purity Measurement Using Reverse Phase HPLC, ED-71 peak: 94.48 % P.A.R
  Purity Measurement Using Reverse Phase HPLC, Other peaks: 3.77 % P.A.R
  Purity Measurement Using Reverse Phase HPLC, Pre Form peak: 1.75 % P.A.R
[1]; 10° C., time 0
  220 nm (%), ED-71 peak: 93.95%
  220 nm (%), Other peaks: 4.70%
  220 nm (%), Pre Form peak: 1.37%
  Purity Measurement Using Reverse Phase HPLC, ED-71 peak: 95.38 % P.A.R
  Purity Measurement Using Reverse Phase HPLC, Other peaks: 3.47 % P.A.R
  Purity Measurement Using Reverse Phase HPLC, Pre Form peak: 1.16 % P.A.R
[1]; 25° C., 1 W, argon, dark
  220 nm (%), ED-71 peak: 93.37%
  220 nm (%), Other peaks: 5.13%
  220 nm (%), Pre Form peak: 1.50%
  Purity Measurement Using Reverse Phase HPLC, ED-71 peak: 94.78 % P.A.R
  Purity Measurement Using Reverse Phase HPLC, Other peaks: 3.95 % P.A.R
  Purity Measurement Using Reverse Phase HPLC, Pre Form peak: 1.27 % P.A.R
[1]; 25° C., 2 W, argon, dark
  220 nm (%), ED-71 peak: 92.39%
  220 nm (%), Other peaks: 5.68%
  220 nm (%), Pre Form peak: 1.93%
  Purity Measurement Using Reverse Phase HPLC, ED-71 peak: 94.20 % P.A.R
  Purity Measurement Using Reverse Phase HPLC, Other peaks: 4.08 % P.A.R
  Purity Measurement Using Reverse Phase HPLC, Pre Form peak: 1.72 % P.A.R
[1]; 25° C., time 0
  220 nm (%), ED-71 peak: 93.95%
  220 nm (%), Other peaks: 4.70%
  220 nm (%), Pre Form peak: 1.37%
  Purity Measurement Using Reverse Phase HPLC, ED-71 peak: 95.38 % P.A.R
  Purity Measurement Using Reverse Phase HPLC, Other peaks: 3.47 % P.A.R
  Purity Measurement Using Reverse Phase HPLC, Pre Form peak: 1.16 % P.A.R
[1]; 40° C., 1 W, argon, dark
  220 nm (%), ED-71 peak: 90.00%
  220 nm (%), Other peaks: 7.71%
  220 nm (%), Pre Form peak: 2.29%
  Purity Measurement Using Reverse Phase HPLC, ED-71 peak: 92.47 % P.A.R
  Purity Measurement Using Reverse Phase HPLC, Other peaks: 5.55 % P.A.R
  Purity Measurement Using Reverse Phase HPLC, Pre Form peak: 1.98 % P.A.R
[1]; 40° C., 2 W, argon, dark
  220 nm (%), ED-71 peak: 87.40%
  220 nm (%), Other peaks: 9.72%
  220 nm (%), Pre Form peak: 2.88%
  Purity Measurement Using Reverse Phase HPLC, ED-71 peak: 90.68 % P.A.R
  Purity Measurement Using Reverse Phase HPLC, Other peaks: 6.78 % P.A.R
  Purity Measurement Using Reverse Phase HPLC, Pre Form peak: 2.53 % P.A.R
[1]; 40° C., time 0
  220 nm (%), ED-71 peak: 93.95%
  220 nm (%), Other peaks: 4.70%
  220 nm (%), Pre Form peak: 1.37%
  Purity Measurement Using Reverse Phase HPLC, ED-71 peak: 95.38 % P.A.R
  Purity Measurement Using Reverse Phase HPLC, Other peaks: 3.47 % P.A.R
  Purity Measurement Using Reverse Phase HPLC, Pre Form peak: 1.16 % P.A.R
[2]; 10° C., 1 M (air), dark
  E 1%: 316.3
[2]; 10° C., 1 M, argon, dark
  E 1%: 320.5
[2]; 10° C., 2 W, argon, dark
  E 1%: 324.9
[2]; 10° C., time 0
  E 1%: 327.5
[2]; 25° C., 1 W, argon, dark
  E 1%: 323.0
[2]; 25° C., 2 W, argon, dark
  E 1%: 316.9
[2]; 25° C., time 0
  E 1%: 327.5
[2]; 40° C., 1 W, argon, dark
  E 1%: 313.2
[2]; 40° C., 2 W, argon, dark
  E 1%: 304.0
[2]; 40° C., time 0
  E 1%: 327.5
[3]; 10° C., 1 M (air), dark
  Purity Measurement Using Normal Phase HPLC, ED-71 peak: 95.26 % P.A.R
  Purity Measurement Using Normal Phase HPLC, Other peaks: 2.42 % P.A.R
  Purity Measurement Using Normal Phase HPLC, Pre Form peak: 2.31 % P.A.R
[3]; 10° C., 1 M, argon, dark
  Purity Measurement Using Normal Phase HPLC, ED-71 peak: 94.58 % P.A.R
  Purity Measurement Using Normal Phase HPLC, Other peaks: 3.09 % P.A.R
  Purity Measurement Using Normal Phase HPLC, Pre Form peak: 2.33 % P.A.R
[3]; 10° C., 2 W, argon, dark
  Purity Measurement Using Normal Phase HPLC, ED-71 peak: 95.46 % P.A.R
  Purity Measurement Using Normal Phase HPLC, Other peaks: 2.28 % P.A.R
  Purity Measurement Using Normal Phase HPLC, Pre Form peak: 2.27 % P.A.R
[3]; 10° C., time 0
  Purity Measurement Using Normal Phase HPLC, ED-71 peak: 96.06 % P.A.R
  Purity Measurement Using Normal Phase HPLC, Other peaks: 2.27 % P.A.R
  Purity Measurement Using Normal Phase HPLC, Pre Form peak: 1.67 % P.A.R
[3]; 25° C., 1 W, argon, dark
  Purity Measurement Using Normal Phase HPLC, ED-71 peak: 95.97 % P.A.R
  Purity Measurement Using Normal Phase HPLC, Other peaks: 2.14 % P.A.R
  Purity Measurement Using Normal Phase HPLC, Pre Form peak: 1.88 % P.A.R
[3]; 25° C., 2 W, argon, dark
  Purity Measurement Using Normal Phase HPLC, ED-71 peak: 94.74 % P.A.R
  Purity Measurement Using Normal Phase HPLC, Other peaks: 3.01 % P.A.R
  Purity Measurement Using Normal Phase HPLC, Pre Form peak: 2.25 % P.A.R
[3]; 25° C., time 0
  Purity Measurement Using Normal Phase HPLC, ED-71 peak: 96.06 % P.A.R
  Purity Measurement Using Normal Phase HPLC, Other peaks: 2.27 % P.A.R
  Purity Measurement Using Normal Phase HPLC, Pre Form peak: 1.67 % P.A.R
[3]; 40° C., 1 W, argon, dark
  Purity Measurement Using Normal Phase HPLC, ED-71 peak: 94.47 % P.A.R
  Purity Measurement Using Normal Phase HPLC, Other peaks: 3.00 % P.A.R
  Purity Measurement Using Normal Phase HPLC, Pre Form peak: 2.53 % P.A.R
[3]; 40° C., 2 W, argon, dark
  Purity Measurement Using Normal Phase HPLC, ED-71 peak: 92.12 % P.A.R
  Purity Measurement Using Normal Phase HPLC, Other peaks: 4.89 % P.A.R
  Purity Measurement Using Normal Phase HPLC, Pre Form peak: 2.99 % P.A.R
[3]; 40° C., time 0
  Purity Measurement Using Normal Phase HPLC, ED-71 peak: 96.06 % P.A.R
  Purity Measurement Using Normal Phase HPLC, Other peaks: 2.27 % P.A.R
  Purity Measurement Using Normal Phase HPLC, Pre Form peak: 1.67 % P.A.R
